Tests used:
[1] = test system: AKT; experiment: Inhibition of AKT activation in CSF1-stimulated RAW264.7 cells (western blot); assay type: cell-based, mouse; settings: Mus musculus, mean ± SD (replicates), read-out: Mean kinase IC50 values: P(S473)AKT [WB]
Procedure: RAW264.7 cells (10^6) were seeded into cell culture dishes 6 cm in diameter and incubated in 4 mL RPMI/10% fetal bovine serum (Biochrom) for 24 h at 37 °C in a humidified 5% CO2 atmosphere. Cells were washed once with phosphate-buffered saline (PBS) and starved in 3 mL RPMI/0.1% bovine serum albumin for another 24 h. Cells were then treated for 1 h at 37 °C with drugs at the indicated final concentrations, with 0.5% DMSO as vehicle control, or left untreated, and finally stimulated for 2 min at 37 °C with 100 ng/mL recombinant mouse CSF1 (R&D Systems) by adding 1 mL prewarmed starving medium containing 400 ng/mL CSF1. Dishes were placed on ice and cells were immediately washed with ice-cold PBS and lysed with 50 µL lysis buffer (50 mM HEPES pH 7.5, 150 mM NaCl, 1.5 mM MgCl2, 10% glycerol, 1% Triton X-100, 0.5% desoxycholate, 0.2% sodium dodecyl sulfate, 1 mM ethylene glycol-bis[β-aminoethyl ether]-N,N,N′,N′-tetraacetic acid, 100 mM NaF, 10 mM Na4P2O7, 1 mM Na3VO4, 1% Phosphatase Inhibitor Cocktail 3 [Sigma-Aldrich], 1 mM phenylmethyl sulfonyl fluoride, Complete Protease Inhibitor Cocktail [Roche CustomBiotech; 1 tablet/10 mL], and 50 U/mL Benzonase [Sigma-Aldrich]). Lysed cells were scraped into Eppendorf tubes, incubated on ice for 20 min, and centrifuged at 4 °C for 10 min at 13,000 rpm; supernatants (lysates) were transferred into new tubes and stored at −80 °C.
Protein concentrations were determined using Pierce bicinchoninic acid assay (Thermo Fisher Scientific) and 40 µg/lane of total lysate was separated by SDS-PAGE on 4–12% Criterion XT Bis–Tris Gels (Bio-Rad) and subsequently transferred to polyvinylidene difluoride membranes using the Trans Blot Turbo Blotting System (Bio-Rad). For antigen detection, membranes were blocked with PBS Odyssey blocking reagent (LI-COR Biosciences) for 1 h at room temperature (RT). Primary antibodies were incubated overnight at 4 °C and the fluorescent secondary antibodies were incubated for 1 h at RT. After each antibody incubation, blots were washed with PBS with 0.05% Tween 20 (Carl Roth) for 15–30 min at RT. Fluorescent signals were quantitatively captured using the Odyssey DLx Infrared Imaging System (LI-COR Biosciences) and the half-maximal inhibitory concentration (IC50) values were calculated using GraphPad software (version 7 or newer).

[2] = test system: CCL2; experiment: CCL2 ELISA in plasma, CT26 study; assay type: in vivo, mouse; settings: steady-state analysis
Procedure: CT26 tumor cells were cultivated in RPMI 1640 with 2 mM L-glutamine (Gibco, Invitrogen GmbH) containing 10% fetal bovine serum (Gibco) at 37 °C and 5% CO2. Cell lines were maintained in culture for no longer than 6 months, and mycoplasma contamination was excluded by enzymatic test (MycoAlert, Lonza) prior to in vivo application. Tumor cells (2 × 10^6) were transplanted subcutaneously into 6- to 8-week-old female BALB/c mice. Control mice were subjected to sham surgery without tumor cell transplantation. Blood and tumor samples were collected from untreated control and tumor-bearing mice on days 4 and 8 (n = 3 mice/group). […] Tumor diameter was measured by caliper and body weight was determined at least twice weekly. Tumor volume was calculated using the formula 0.5 × a × b^2, where a and b are the long and short diameters of the tumor, respectively.
For tissue collection, mice were killed at predetermined time points. […] Tumors were removed, and their weights determined, then divided into three pieces, one of which was snap-frozen, one formalin fixed and paraffin embedded, and one weighed and used for FC analyses.
CCL2 was detected in plasma samples and tumor tissue using the U-Plex mouse MCP-1 ELISA Kit (Meso Scale Diagnostics) according to the manufacturer’s instructions. […] For plasma, 12.5 µL was analyzed per animal. […]

IC50 [1]: 141 ± 59 nM
Compound: CNC(=O)c1cc(Oc2ccc(NC(=O)Nc3ccc(Cl)c(C(F)(F)F)c3)c(F)c2)ccn1 [REG, Regorafenib]
CCL2 levels in plasma vs vehicle or untreated samples [2]: did not change

— paper PMC10069031 (European Journal of Medical Research, 2023)
